Measurements as given in patent US9067926B2, “Fluoromethyl-5,6-dihydro-4H-[1,3]OXAZINES” (F. Hoffmann-La Roche AG, priority 2012, dated 2015).

How the values were obtained:
[1] = target: T1, recombinant human cathepsin E (Homo sapiens, UniProt P14091); test: Cathepsin E fluorescent substrate kinetic assay; assay type: biochemical; conditions: pH 4.5
T1 construct: purchased R&D Systems
T1 sequence (P14091 54-396): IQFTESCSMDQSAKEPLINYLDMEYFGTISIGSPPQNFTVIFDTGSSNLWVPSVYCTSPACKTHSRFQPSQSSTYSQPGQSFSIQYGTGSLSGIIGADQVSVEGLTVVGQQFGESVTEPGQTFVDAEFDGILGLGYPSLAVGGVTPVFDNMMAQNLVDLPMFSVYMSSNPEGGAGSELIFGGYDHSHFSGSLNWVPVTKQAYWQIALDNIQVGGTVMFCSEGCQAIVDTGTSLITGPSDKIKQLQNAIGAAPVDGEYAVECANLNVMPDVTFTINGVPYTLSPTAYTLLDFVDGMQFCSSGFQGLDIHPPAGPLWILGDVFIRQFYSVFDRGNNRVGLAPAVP
Excerpt: (§1) Cathepsin D and Cathepsin E Fluorescent Substrate Kinetic Assays
(§2) The MR121 fluorescence assays described below are based on the fact that MR121 forms a non-fluorescent ground state complex with tryptophan. In solution this formation occurs at millimolar concentrations of tryptophan. The mechanism can be used to design a generic biochemical assay for proteases. […] In absence of protease activity, the substrates remain intact and the MR121 fluorescence is reduced by the high local Trp-concentration. If the substrates are cleaved by the enzymes the MR121 fluorescence is recovered.
(§3) The fluorescent substrate cathepsin D and cathepsin E kinetic assays were performed at room temperature in 384-well microtiter plates (black with clear flat bottom, non binding surface plates from Corning) in a final volume of 51 μl. The test compounds were serially diluted in DMSO (15 concentrations, 1/3 dilution steps) and 1 μl of diluted compounds were mixed for 10 min with 40 μl of cathepsin D (from human liver, Calbiochem) diluted in assay buffer (100 mM sodium acetate, 0.05% BSA, pH 5.5; final concentration: 200 nM) or with 40 μl of recombinant human cathepsin E (R&D Systems) diluted in assay buffer (100 mM sodium acetate, 0.05% BSA, pH 4.5; final concentration: 0.01 nM). […] The slope in the linear range of the kinetic was calculated and the IC50 of the test compounds were determined using a four parameter equation for curve fitting.

[2] = target: T2, cathepsin D (from human liver) (Homo sapiens, UniProt P07339); test: Cathepsin D fluorescent substrate kinetic assay; assay type: biochemical; conditions: pH 5.5
T2 construct: cathepsin D (from human liver, Calbiochem) diluted in assay buffer; purchased Calbiochem; host or cells: human liver
Excerpt: as §1, §2, §3

[3] = Detection of glutathione conjugates (GSH); assay type: in vitro ADME, human; design: key: NF = in vitro no adduct formation relative to control; conditions: in vitro, relative to control
Excerpt: Detection of Glutathione Conjugates (GSH) The assay conditions for the detection of glutathione conjugates follow the procedure described by C. M. Dieckhaus et al. in Chem. Res. Toxicol. 2005, 18, 630-63.

[4] = target: hERG (Homo sapiens, UniProt Q12809); test: hERG current measurement (automated patch clamp); assay type: cell-based
Experimental: The hERG current measurement was performed at an automated patch clamp system following the procedure described in R. E. Martin et al. in Bio org.

[5] = tested on: Aβ40 in brain; test: In vivo inhibition of Aβ40 in brain of wild-type mice; conditions: Mus musculus, po; 10 mg/kg p.o., brain Aβ40 after 4 h, female C57Bl/6J mice; read-out: in vivo effect, Percentage of control @ 10 mg/kg p.o
Experimental: In Vivo Experiments. […] The test compound was dissolved in 5% EtOH, 10% Solutol and was applied per os at 10 ml/kg. After 4 h the animals were sacrificed and brain and plasma were collected. The brain was cut into halves and immediately frozen on dry ice. Brain was used for measurement of Aβ40 and plasma was used for determination of compound exposure. […] Brain tissue was homogenized in 2% DEA buffer in a Roche […] (20'', 4000 rpm) and subsequently centrifuged for 1 h at 100'000 g. DEA was reduced to 0.2% in 50 mM NaCl and one half of the DEA lysate was passed over an Oasis Solid Phase extraction plate (Waters; Cat.Nr. 186000679) which had been activated with MeOH and equilibrated in dH2O (1 ml each). After washes in 10% and 30% MeOH (1 ml each) the AP-peptides were eluted in 0.8 ml 2% NH4OH in 90% MeOH. […] Aβ40 was determined by an AlphaLISA assay (Perkin Elmer). In a white 96well half-area microplate (Perkin Elmer Cat.Nr. 6005561), 20 μl of the reconstituted sample were mixed with 5 μl biotinylated BAP-24 (specific for C-terminus of Aβ40 (Brockhaus, M.; Grunberg, J.; Rohrig, S.; Loetscher, H.; Wittenburg, N.; Baumeister, R.; Jacobsen, […]. Caspase-mediated cleavage is not required for the activity of presenilins in amyloidogenesis and NOTCH signaling. […] The mix was incubated for 1 h at RT in the dark. Then 20 μl Streptavin-coated Donor Beads (Perkin Elmer Cat. Nr. 6760002, final dilution 1:125) were added and this final mix was incubated in the dark for another 30 min at r.t. before RFU was measured in an AlphaScreen Reader(Perkin Elmer Envision 2104).

[6] = target: T3, CYP3A4 (Homo sapiens, UniProt P08684); test: CYP inhibition assay, CYP3A4; assay type: in vitro ADME; conditions: pooled human liver microsomes, midazolam substrate; read-out: CYP IC50 3A4
T3 construct: 0.2 mg/ml pooled human liver microsomes; from tissue; host or cells: pooled human liver microsomes
Experimental: (§4) Inhibition of cytochromes P450 (CYPs) 2C9, 2D6 and 3A4 was assessed using human liver microsomes and CYP-selective substrate metabolism reactions. […] Quenched incubates were stored at −20° C. for at least 1 hour before centrifugation (20,000×g, 20 minutes). Supernatants were removed and diluted 1:1 with water prior to analysis using a RapidFire sample injector system and API4000 mass spectrometer. Peak areas for substrate, metabolite and stable-labelled metabolite standard were determined using MS/MS. The peak area ratios between the metabolite generated by the enzymatic reaction and the internal standard were used in subsequent calculations. The percentage of (DMSO) control activity was calculated for each incubate and IC50 values estimated by non-linear regression. Sulfaphenazole, quinidine or ketoconazole were tested in each CYP2C9, CYP2D6 or CYP3A4 inhibition experiment, respectively, to ensure assay sensitivity and reproducibility.

[7] = target: T4, CYP2D6 (Homo sapiens, UniProt P10635); test: CYP inhibition assay, CYP2D6; assay type: in vitro ADME; conditions: pooled human liver microsomes, dextromethorphan substrate; read-out: CYP IC50 2D6
T4 construct: 0.2 mg/ml pooled human liver microsomes; from tissue; host or cells: pooled human liver microsomes
Experimental: as §4

[8] = target: T5, CYP2C9 (Homo sapiens, UniProt P11712); test: CYP inhibition assay, CYP2C9; assay type: in vitro ADME; conditions: pooled human liver microsomes, diclofenac substrate; read-out: CYP IC50 2C9
T5 construct: 0.2 mg/ml pooled human liver microsomes; from tissue; host or cells: pooled human liver microsomes
Experimental: as §4

[9] = target: T6, BACE1 (Homo sapiens, UniProt P56817); test: Cellular Aβ-lowering assay (Abeta 40 AlphaLISA); assay type: cell-based; conditions: HEK293 APP cells, 18-20 hrs incubation, Aβ 40 in culture supernatant; read-out: BACE1 cell act. Aβ40 IC50
T6 construct: endogenous in cells; host or cells: HEK293 APP cells
Experimental: Cellular Aβ-Lowering Assay:
The Abeta 40 AlphaLISA Assay can be used. The HEK293 APP cells were seeded in 96 well Microtiter plates in cell culture medium (Iscove's, plus 10% (vv) fetal bovine serum, penicillinstreptomycin) to about 80% confluency and the compounds were added at a 3× concentration in 13 volume of culture medium (final DMSO concentration was kept at 1% vv). After 18-20 hrs incubation at 37° C. and 5% CO2 in a humidified incubator, the culture supernatants were harvested for the determination of Aβ 40 concentrations using Perkin-Elmer Human Amyloid beta 1-40 (high specificity) Kit (Cat# AL275C).
Levels of Aβ 40 in the culture supernatants were calculated as percentage of maximum signal (cells treated with 1% DMSO without inhibitor). The IC50 values were calculated using the Excel XLfit software.

T6 sequence (P56817 46-501): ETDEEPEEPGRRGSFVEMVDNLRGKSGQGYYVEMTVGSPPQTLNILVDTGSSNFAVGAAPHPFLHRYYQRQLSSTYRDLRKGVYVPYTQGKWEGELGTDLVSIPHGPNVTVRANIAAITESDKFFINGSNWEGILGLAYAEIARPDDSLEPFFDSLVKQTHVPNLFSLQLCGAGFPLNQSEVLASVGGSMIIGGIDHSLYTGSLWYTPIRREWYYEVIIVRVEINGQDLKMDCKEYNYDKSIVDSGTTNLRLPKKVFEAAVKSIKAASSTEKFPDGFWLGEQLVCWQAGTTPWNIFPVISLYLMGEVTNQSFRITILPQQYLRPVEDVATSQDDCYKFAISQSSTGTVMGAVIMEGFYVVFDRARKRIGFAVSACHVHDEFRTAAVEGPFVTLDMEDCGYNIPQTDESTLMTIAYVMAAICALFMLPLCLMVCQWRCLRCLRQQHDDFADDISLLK
T2 sequence (P07339 65-412): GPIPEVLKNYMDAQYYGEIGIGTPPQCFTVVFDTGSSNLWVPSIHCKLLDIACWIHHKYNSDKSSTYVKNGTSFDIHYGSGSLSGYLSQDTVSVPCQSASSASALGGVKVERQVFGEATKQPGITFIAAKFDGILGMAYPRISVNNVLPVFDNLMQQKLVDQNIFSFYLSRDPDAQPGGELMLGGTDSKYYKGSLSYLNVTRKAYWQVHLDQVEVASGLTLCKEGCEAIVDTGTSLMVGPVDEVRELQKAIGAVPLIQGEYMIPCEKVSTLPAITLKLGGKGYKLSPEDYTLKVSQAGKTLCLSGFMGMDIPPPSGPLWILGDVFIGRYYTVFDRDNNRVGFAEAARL
T4 sequence (P10635 whole entry): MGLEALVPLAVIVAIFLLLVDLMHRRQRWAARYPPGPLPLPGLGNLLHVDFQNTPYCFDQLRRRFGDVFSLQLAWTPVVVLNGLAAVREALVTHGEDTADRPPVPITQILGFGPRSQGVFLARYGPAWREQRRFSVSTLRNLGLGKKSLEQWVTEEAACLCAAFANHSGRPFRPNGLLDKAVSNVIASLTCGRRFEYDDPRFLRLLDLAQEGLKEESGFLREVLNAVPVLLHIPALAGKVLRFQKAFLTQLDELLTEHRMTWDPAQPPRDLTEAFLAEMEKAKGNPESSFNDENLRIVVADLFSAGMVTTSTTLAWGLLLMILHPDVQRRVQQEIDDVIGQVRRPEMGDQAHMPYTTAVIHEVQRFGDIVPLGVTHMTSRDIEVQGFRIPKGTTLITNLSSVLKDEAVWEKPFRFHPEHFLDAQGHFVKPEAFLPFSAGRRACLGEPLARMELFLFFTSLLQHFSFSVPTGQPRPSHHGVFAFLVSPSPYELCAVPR
T5 sequence (P11712 whole entry): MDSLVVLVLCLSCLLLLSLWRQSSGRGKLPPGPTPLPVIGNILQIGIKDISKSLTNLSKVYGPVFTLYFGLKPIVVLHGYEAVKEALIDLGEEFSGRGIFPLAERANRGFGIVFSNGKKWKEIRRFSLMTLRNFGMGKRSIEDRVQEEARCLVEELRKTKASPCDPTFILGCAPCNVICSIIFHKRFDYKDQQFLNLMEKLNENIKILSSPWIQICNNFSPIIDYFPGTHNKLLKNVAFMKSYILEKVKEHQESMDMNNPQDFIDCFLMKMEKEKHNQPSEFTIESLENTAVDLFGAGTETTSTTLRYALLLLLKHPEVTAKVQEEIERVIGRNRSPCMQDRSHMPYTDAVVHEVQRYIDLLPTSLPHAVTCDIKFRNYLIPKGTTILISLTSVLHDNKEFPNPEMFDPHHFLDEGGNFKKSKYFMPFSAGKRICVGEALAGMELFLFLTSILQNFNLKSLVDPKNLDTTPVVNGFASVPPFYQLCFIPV
T3 sequence (P08684 whole entry): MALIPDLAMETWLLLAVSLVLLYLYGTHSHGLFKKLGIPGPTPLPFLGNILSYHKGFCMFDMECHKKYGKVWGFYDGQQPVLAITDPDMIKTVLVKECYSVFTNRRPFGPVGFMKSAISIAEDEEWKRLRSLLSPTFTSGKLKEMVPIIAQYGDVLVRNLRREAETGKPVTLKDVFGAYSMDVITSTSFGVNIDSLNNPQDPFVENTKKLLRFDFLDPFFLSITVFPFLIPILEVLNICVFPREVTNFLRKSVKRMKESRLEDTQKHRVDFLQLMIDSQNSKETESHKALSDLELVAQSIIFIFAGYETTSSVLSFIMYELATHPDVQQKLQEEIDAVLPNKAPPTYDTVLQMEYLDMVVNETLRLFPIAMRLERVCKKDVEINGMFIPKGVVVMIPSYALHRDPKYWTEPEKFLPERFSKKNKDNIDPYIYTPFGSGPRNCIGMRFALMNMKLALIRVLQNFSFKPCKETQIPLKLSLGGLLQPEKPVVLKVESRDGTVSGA
Sequence of hERG (Q12809 whole entry): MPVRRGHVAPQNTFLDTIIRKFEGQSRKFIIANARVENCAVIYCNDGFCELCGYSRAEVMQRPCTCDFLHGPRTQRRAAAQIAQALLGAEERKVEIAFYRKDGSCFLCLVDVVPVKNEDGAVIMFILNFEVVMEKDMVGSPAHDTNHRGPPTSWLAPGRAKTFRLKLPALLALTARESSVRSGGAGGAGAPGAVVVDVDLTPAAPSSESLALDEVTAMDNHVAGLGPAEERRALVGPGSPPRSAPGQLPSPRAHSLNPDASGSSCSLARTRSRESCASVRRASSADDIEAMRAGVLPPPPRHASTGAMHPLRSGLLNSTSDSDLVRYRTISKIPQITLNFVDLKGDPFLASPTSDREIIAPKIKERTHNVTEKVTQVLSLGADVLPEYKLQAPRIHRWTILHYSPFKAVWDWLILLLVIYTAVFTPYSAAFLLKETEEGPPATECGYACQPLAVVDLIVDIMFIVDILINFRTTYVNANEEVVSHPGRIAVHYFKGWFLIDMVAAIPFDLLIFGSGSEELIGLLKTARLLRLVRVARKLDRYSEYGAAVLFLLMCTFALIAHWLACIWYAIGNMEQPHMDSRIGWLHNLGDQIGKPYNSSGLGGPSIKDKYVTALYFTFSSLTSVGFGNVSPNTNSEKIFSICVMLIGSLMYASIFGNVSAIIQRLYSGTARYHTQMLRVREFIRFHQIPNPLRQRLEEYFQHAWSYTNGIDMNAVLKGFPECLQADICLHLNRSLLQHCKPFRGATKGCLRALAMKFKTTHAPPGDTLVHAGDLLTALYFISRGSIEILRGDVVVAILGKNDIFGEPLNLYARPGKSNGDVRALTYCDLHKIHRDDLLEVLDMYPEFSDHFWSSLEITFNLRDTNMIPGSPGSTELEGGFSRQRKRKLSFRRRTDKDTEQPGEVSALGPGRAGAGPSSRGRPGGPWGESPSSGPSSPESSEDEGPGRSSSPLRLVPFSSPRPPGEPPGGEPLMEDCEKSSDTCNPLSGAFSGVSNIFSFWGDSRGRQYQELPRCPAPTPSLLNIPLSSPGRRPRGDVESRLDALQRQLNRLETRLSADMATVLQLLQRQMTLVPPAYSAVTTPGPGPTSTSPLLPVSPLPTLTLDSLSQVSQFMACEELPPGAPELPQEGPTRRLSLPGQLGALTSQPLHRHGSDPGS

| Compound | IC50 [9] [nM] | further results |
| --- | --- | --- |
| N#Cc1ccc(C(=O)Nc2ccc(F)c([C@]3(CF)C[C@@H](C(F)(F)F)OC(N)=N3)c2)nc1 [Example 3, N-(3-((4S,6S)-2-amino-4-(fluoromethyl)-6-(trifluoromethyl)-5,6-dihydro-4H-1,3-oxazin-4-yl)-4-fluorophenyl)-5-cyanopicolinamide] | – | IC50 [1]: > 200000 nM; IC50 [2]: > 200000 nM |
| COc1cnc(C(=O)Nc2ccc(F)c([C@]3(CF)C[C@@H](C(F)(F)F)OC(N)=N3)c2)cn1 [Example 36, N-(3-((4S,6S)-2-Amino-4-(fluoromethyl)-6-(trifluoromethyl)-5,6-dihydro-4H-1,3-oxazin-4-yl)-4-fluorophenyl)-5-methoxypyrazine-2-carboxamide] | – | GSH human (glutathione adduct formation) [3]: NF; hERG Inhibition @ 10 μM [4]: 7; response vs control in vivo at 10 mg/kg [5]: 88%; IC50 [1]: > 200000 nM; IC50 [2]: > 200000 nM; IC50 [6]: > 50000 nM; IC50 [7]: 16000 nM; IC50 [8]: > 50000 nM |
| CC#CCOc1cnc(C(=O)Nc2ccc(F)c([C@]3(CF)C[C@@H](C(F)(F)F)OC(N)=N3)c2)cn1 [Example 38, N-(3-((4S,6S)-2-Amino-4-(fluoromethyl)-6-(trifluoromethyl)-5,6-dihydro-4H-1,3-oxazin-4-yl)-4-fluorophenyl)-5-(but-2-ynyloxy)pyrazine-2-carboxamide] | 0.6 | – |
| NC1=N[C@](CF)(c2cc(NC(=O)c3cnc(OCC(F)F)cn3)ccc2F)C[C@@H](C(F)(F)F)O1 [Example 40, N-(3-((4S,6S)-2-Amino-4-(fluoromethyl)-6-(trifluoromethyl)-5,6-dihydro-4H-1,3-oxazin-4-yl)-4-fluorophenyl)-5-(2,2-difluoroethoxyl)pyrazine-2-carboxamide] | 29 | – |
| NC1=N[C@](CF)(c2cc(NC(=O)c3cnc(OCC(F)(F)F)cn3)ccc2F)C[C@@H](C(F)(F)F)O1 [Example 41, N-(3-((4S,6S)-2-Amino-4-(fluoromethyl)-6-(trifluoromethyl)-5,6-dihydro-4H-1,3-oxazin-4-yl)-4-fluorophenyl)-5-(2,2,2-trifluoroethoxyl)pyrazine-2-carboxamide] | 17 | – |
| Cc1cnc(C(=O)Nc2ccc(F)c([C@]3(CF)C[C@@H](C(F)(F)F)OC(N)=N3)c2)cn1 [Example 42, N-(3-((4S,6S)-2-Amino-4-(fluoromethyl)-6-(trifluoromethyl)-5,6-dihydro-4H-1,3-oxazin-4-yl)-4-fluorophenyl)-5-methylpyrazine-2-carboxamide] | 64 | – |
| NC1=N[C@](CF)(c2cc(NC(=O)c3cnc(OCF)cn3)ccc2F)C[C@@H](C(F)(F)F)O1 [Example 43, N-(3-((4S,6S)-2-Amino-4-(fluoromethyl)-6-(trifluoromethyl)-5,6-dihydro-4H-1,3-oxazin-4-yl)-4-fluorophenyl)-5-(fluoromethoxy)pyrazine-2-carboxamide] | 3 | – |
| NC1=N[C@](CF)(c2cc(NC(=O)c3cnc(C(F)F)cn3)ccc2F)C[C@@H](C(F)(F)F)O1 [Example 45, N-(3-((4S,6S)-2-Amino-4-(fluoromethyl)-6-(trifluoromethyl)-5,6-dihydro-4H-1,3-oxazin-4-yl)-4-fluorophenyl)-5-(difluoromethyl)pyrazine-2-carboxamide] | 39 | – |
| N#Cc1ccc(C(=O)Nc2ccc(F)c([C@]3(C(F)F)C[C@H](C(F)(F)F)OC(N)=N3)c2)nc1 [Example 48, N-(3-((4S,6R)-2-Amino-4-(difluoromethyl)-6-(trifluoromethyl)-5,6-dihydro-4H-1,3-oxazin-4-yl)-4-fluorophenyl)-5-cyanopicolinamide] | 520 | – |

Now from value to molecule, other results behind:

| IC50 [9] [nM] | Compound | further results |
| --- | --- | --- |
| 0.4 | NC1=N[C@](CF)(c2cc(NC(=O)c3cnc(OC(F)F)cn3)ccc2F)C[C@@H](C(F)(F)F)O1 [Example 39, N-(3-((4S,6S)-2-Amino-4-(fluoromethyl)-6-(trifluoromethyl)-5,6-dihydro-4H-1,3-oxazin-4-yl)-4-fluorophenyl)-5-(difluoromethoxy)pyrazine-2-carboxamide] | – |
| 1 | NC1=N[C@](CF)(c2cc(NC(=O)c3coc(CF)n3)ccc2F)C[C@@H](C(F)(F)F)O1 [Example 47, N-(3-((4S,6S)-2-Amino-4-(fluoromethyl)-6-(trifluoromethyl)-5,6-dihydro-4H-1,3-oxazin-4-yl)-4-fluorophenyl)-2-(fluoromethyl)oxazole-4-carboxamide] | – |
| 82 | N#Cc1ccc(C(=O)Nc2ccc(F)c([C@]3(C(F)F)C[C@@H](C(F)(F)F)OC(N)=N3)c2)nc1 [Example 49, N-(3-((4S,6S)-2-Amino-4-(difluoromethyl)-6-(trifluoromethyl)-5,6-dihydro-4H-1,3-oxazin-4-yl)-4-fluorophenyl)-5-cyanopicolinamide] | – |
